Data as given in the CheMixHub ionic liquid set.

Experiment: xn = mol fraction of the nth substance listed
Conditions: 100 kPa

CC[n+]1ccn(C)c1.O=S(=O)([N-]S(=O)(=O)C(F)(F)F)C(F)(F)F + CC[n+]1ccn(C)c1.F[B-](F)(F)F
Conditions	electrical conductivity [S/m]	viscosity [mPa·s]
243.15 K, x1 = 0.2	0.039	–
243.15 K, x1 = 0.3	0.043	–
243.15 K, x1 = 0.4	0.033	–
243.15 K, x1 = 0.5	0.038	–
243.15 K, x1 = 0.6	0.023	–
243.15 K, x1 = 0.7	0.046	–
243.15 K, x1 = 0.8	0.028	–
243.15 K, x1 = 1	0.011	–
248.15 K, x1 = 0.2	0.062	–
248.15 K, x1 = 0.3	0.068	–
248.15 K, x1 = 0.4	0.053	–
248.15 K, x1 = 0.5	0.06	–
248.15 K, x1 = 0.6	0.039	–
248.15 K, x1 = 0.7	0.072	–
248.15 K, x1 = 0.8	0.045	–
248.15 K, x1 = 1	0.019	–
253.15 K, x1 = 0.2	0.094	478
253.15 K, x1 = 0.3	0.102	485
253.15 K, x1 = 0.4	0.081	468
253.15 K, x1 = 0.5	0.09	460
253.15 K, x1 = 0.6	0.061	–
253.15 K, x1 = 0.7	0.107	435
253.15 K, x1 = 0.8	0.069	403
253.15 K, x1 = 1	0.031	350
258.15 K, x1 = 0.2	0.136	–
258.15 K, x1 = 0.3	0.146	–
258.15 K, x1 = 0.4	0.118	–
258.15 K, x1 = 0.5	0.13	–
258.15 K, x1 = 0.6	0.091	–
258.15 K, x1 = 0.7	0.152	–
258.15 K, x1 = 0.8	0.099	–
258.15 K, x1 = 1	0.047	–
263.15 K, x1 = 0.2	0.19	226
263.15 K, x1 = 0.3	0.202	229
263.15 K, x1 = 0.4	0.166	222
263.15 K, x1 = 0.5	0.18	220
263.15 K, x1 = 0.6	0.131	–
263.15 K, x1 = 0.7	0.208	208
263.15 K, x1 = 0.8	0.138	193
263.15 K, x1 = 1	0.07	173
268.15 K, x1 = 0.2	0.255	–
268.15 K, x1 = 0.3	0.27	–
268.15 K, x1 = 0.4	0.226	–
268.15 K, x1 = 0.5	0.242	–
268.15 K, x1 = 0.6	0.18	–
268.15 K, x1 = 0.7	0.276	–
268.15 K, x1 = 0.8	0.186	–
268.15 K, x1 = 1	0.099	–
273.15 K, x1 = 0.2	0.334	122
273.15 K, x1 = 0.3	0.351	124
273.15 K, x1 = 0.4	0.298	120
273.15 K, x1 = 0.5	0.316	120
273.15 K, x1 = 0.6	0.241	–
273.15 K, x1 = 0.7	0.357	114
273.15 K, x1 = 0.8	0.243	105
273.15 K, x1 = 1	0.135	96.5
278.15 K, x1 = 0.2	0.427	–
278.15 K, x1 = 0.3	0.445	–
278.15 K, x1 = 0.4	0.383	–
278.15 K, x1 = 0.5	0.403	–
278.15 K, x1 = 0.6	0.314	–
278.15 K, x1 = 0.7	0.452	–
278.15 K, x1 = 0.8	0.31	–
278.15 K, x1 = 1	0.179	–
283.15 K, x1 = 0.2	0.533	72.6
283.15 K, x1 = 0.3	0.553	74
283.15 K, x1 = 0.4	0.481	72.4
283.15 K, x1 = 0.5	0.503	72.1
283.15 K, x1 = 0.6	0.4	–
283.15 K, x1 = 0.7	0.559	69.1
283.15 K, x1 = 0.8	0.388	63.8
283.15 K, x1 = 1	0.232	59.3
288.15 K, x1 = 0.2	0.654	–
288.15 K, x1 = 0.3	0.674	–
288.15 K, x1 = 0.4	0.594	–
288.15 K, x1 = 0.5	0.617	–
288.15 K, x1 = 0.6	0.499	–
288.15 K, x1 = 0.7	0.68	–
288.15 K, x1 = 0.8	0.475	–
288.15 K, x1 = 1	0.294	–
293.15 K, x1 = 0.2	0.79	46.7
293.15 K, x1 = 0.3	0.81	47.9
293.15 K, x1 = 0.4	0.721	47
293.15 K, x1 = 0.5	0.744	47
293.15 K, x1 = 0.6	0.612	–
293.15 K, x1 = 0.7	0.815	45.3
293.15 K, x1 = 0.8	0.574	41.7
293.15 K, x1 = 1	0.365	39.2
298.15 K, x1 = 0.2	0.939	–
298.15 K, x1 = 0.3	0.958	–
298.15 K, x1 = 0.4	0.862	–
298.15 K, x1 = 0.5	0.885	–
298.15 K, x1 = 0.6	0.738	–
298.15 K, x1 = 0.7	0.963	–
298.15 K, x1 = 0.8	0.682	–
298.15 K, x1 = 1	0.447	–
303.15 K, x1 = 0.2	–	32
303.15 K, x1 = 0.3	–	33
303.15 K, x1 = 0.4	–	32.5
303.15 K, x1 = 0.5	–	32.5
303.15 K, x1 = 0.7	–	31.5
303.15 K, x1 = 0.8	–	29
303.15 K, x1 = 1	–	27.4
313.15 K, x1 = 0.2	–	23
313.15 K, x1 = 0.3	–	23.9
313.15 K, x1 = 0.4	–	23.6
313.15 K, x1 = 0.5	–	23.6
313.15 K, x1 = 0.7	–	23
313.15 K, x1 = 0.8	–	21.1
313.15 K, x1 = 1	–	20.1
323.15 K, x1 = 0.2	–	17.3
323.15 K, x1 = 0.3	–	18
323.15 K, x1 = 0.4	–	17.8
323.15 K, x1 = 0.5	–	17.8
323.15 K, x1 = 0.7	–	17.5
323.15 K, x1 = 0.8	–	16
323.15 K, x1 = 1	–	15.3
333.15 K, x1 = 0.2	–	13.4
333.15 K, x1 = 0.3	–	14.1
333.15 K, x1 = 0.4	–	13.9
333.15 K, x1 = 0.5	–	13.9
333.15 K, x1 = 0.7	–	13.8
333.15 K, x1 = 0.8	–	12.6
333.15 K, x1 = 1	–	12.1
